Results reported in ChEMBL document CHEMBL4184149, “Discovery and process development of a novel TACE inhibitor for the topical treatment of psoriasis” (Bioorg Med Chem, 2018).
≈ marks a conversion by molar mass, not a printed value. Calls of active or inactive are those of the source. The rule behind the calls is not given here.

Columns and labels:
[1] = target: Disintegrin and metalloproteinase domain-containing protein 17 (Homo sapiens, UniProt P78536); experiment: Inhibition of TACE in human PBMC assessed as reduction in LPS-induced TNFalpha production incubated overnight by HTRF assay; format: cell-based
Sequence of Disintegrin and metalloproteinase domain-containing protein 17 (P78536 whole entry, the tested form may be a part): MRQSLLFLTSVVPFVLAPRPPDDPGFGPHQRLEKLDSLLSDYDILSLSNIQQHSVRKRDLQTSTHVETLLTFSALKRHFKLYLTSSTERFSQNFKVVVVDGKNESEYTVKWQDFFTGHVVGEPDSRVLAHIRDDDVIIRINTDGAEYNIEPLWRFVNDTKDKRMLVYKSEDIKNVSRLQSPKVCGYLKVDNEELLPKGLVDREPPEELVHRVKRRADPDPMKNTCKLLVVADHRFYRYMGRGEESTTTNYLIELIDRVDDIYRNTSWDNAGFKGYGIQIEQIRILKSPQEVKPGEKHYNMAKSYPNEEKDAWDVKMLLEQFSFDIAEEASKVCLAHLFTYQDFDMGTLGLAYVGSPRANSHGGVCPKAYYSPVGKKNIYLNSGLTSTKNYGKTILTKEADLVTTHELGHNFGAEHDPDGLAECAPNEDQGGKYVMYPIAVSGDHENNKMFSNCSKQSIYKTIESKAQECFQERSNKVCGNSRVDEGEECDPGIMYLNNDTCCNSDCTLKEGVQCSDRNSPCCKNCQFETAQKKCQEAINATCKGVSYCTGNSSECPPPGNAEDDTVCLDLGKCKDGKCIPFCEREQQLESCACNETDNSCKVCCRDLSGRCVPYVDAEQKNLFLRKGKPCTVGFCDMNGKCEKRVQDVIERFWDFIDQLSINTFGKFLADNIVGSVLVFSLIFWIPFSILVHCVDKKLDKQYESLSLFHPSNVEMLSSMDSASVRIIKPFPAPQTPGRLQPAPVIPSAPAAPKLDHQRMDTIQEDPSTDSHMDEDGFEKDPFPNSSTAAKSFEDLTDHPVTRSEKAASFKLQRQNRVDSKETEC

[2] = Solubility of the compound in propylene glycol/ethanol96 at 30 mg/ml after 24 hrs by UV-spectrometric analysis; format: physicochemical; conditions: for solubility at 24 h: propylene glycol/ethanol96; for solubility: 24 h
[3] = (§1) Intrinsic clearance in human hepatocytes assessed per million cells at 1 uM by LC-MS/MS analysis; format: ADME, cell-based, Hepatocyte; conditions: human hepatocytes, read-out: CLH
[4] = Stability of the compound in propylene glycol/ethanol96 at 0.1 mg/ml measured up to 3 months by HPLC analysis; format: physicochemical; conditions: read-out: Stability
TK6 [5] = experiment: Genotoxicity in p53-competent human TK6 cells in absence of Sprague-Dawley rat S9 fraction by GADD45alpha GFP reporter assay; format: toxicity, cell-based
TK6 [6] = experiment: Genotoxicity in p53-competent human TK6 cells in presence of Sprague-Dawley rat S9 fraction by GADD45alpha GFP reporter assay; format: toxicity, cell-based
[7] = Half life in human neonatal keratinocytes at 1 uM by LC-MS/MS analysis; format: ADME, cell-based
[8] = Aqueous solubility of the compound in PBS at pH 7.4 at 20 degC after 24 hrs by HPLC analysis; format: physicochemical
[9] = Stability of the compound in propylene glycol/ethanol96 assessed as parent compound remaining at 0.1 mg/ml after 1 month at 40 degC by HPLC analysis; format: physicochemical; conditions: read-out: Stability
Hepatocyte = experiment: as §1; format: ADME, cell-based; conditions: hepatocytes, 1 µM
Mus musculus = experiment: Antiinflammatory activity in topically applied oxazolone-induced chronic skin inflammation hairless SKH1 mouse model assessed as decrease in skin lesions applied topically for 10 days in combination with oxazolone; format: functional, organism-based
[10] = Photoirritancy factor, ratio of EC50 for human neonatal keratinocytes under dark condition to EC50 for human neonatal keratinocytes under 5 J/cm2 UV light exposure; format: toxicity; conditions: read-out: Ratio EC50

Compound	IC50 [1]	solubility at 24 h [2]	other results
Cc1cc(COc2ccc(S(=O)(=O)NC(C)(C)C(=O)NO)cc2)c2ccccc2n1	140 nM		
CC(=O)N1CC(CC(=O)NO)(NS(=O)(=O)c2ccc(OCc3cc(C)nc4ccccc34)c(C)c2)C1	> 10000 nM	400 µM (≈ 205 µg/mL)	
CC(=O)N1CC2(C1)CC(NS(=O)(=O)c1ccc(OCc3cc(C)nc4ccccc34)cc1)(C(=O)NO)C2	36 nM	17000 µM (≈ 8920 µg/mL)	hepatocyte CLint at 1 µM [3]: < 5 µL/min/1e6 cells; remaining at 0.1 mg/ml [4]: 95%; Activity (TK6 [5]): Toxic; Activity (TK6 [6]): Toxic; half-life at 1 µM [7]: > 24 h; solubility at 24 h [8]: 84 µM (≈ 44.1 µg/mL)
Cc1cc(COc2ccc(S(=O)(=O)NC[C@@H](C(=O)NO)N3CCCCC3)cc2)c2ccccc2n1		8000 µM (≈ 3990 µg/mL)	hepatocyte CLint at 1 µM [3]: 24 µL/min/1e6 cells; remaining at 0.1 mg/ml [4]: 89%; Activity (TK6 [5]): Non-Toxic; Activity (TK6 [6]): Non-Toxic; half-life at 1 µM [7]: > 24 h; solubility at 24 h [8]: < 1 µM
Cc1cc(COc2ccc(S(=O)(=O)NC3(C(=O)NO)CCCC3)cc2)c2ccccc2n1	68 nM	200 µM (≈ 91.1 µg/mL)	
CC(=O)N1CC(CC(=O)NO)(NS(=O)(=O)c2ccc(SCc3cc(C)nc4ccccc34)cc2)C1	720 nM	1000 µM (≈ 515 µg/mL)	
Cc1cc(COc2ccc(S(=O)(=O)N(C(C)C)C3(C(=O)NO)CN(C(=O)C(C)C)C3)cc2)c2ccccc2n1	790 nM	2200 µM (≈ 1220 µg/mL)	hepatocyte CLint at 1 µM [3]: 17 µL/min/1e6 cells
Cc1cc(COc2ccc(S(=O)(=O)NC3(C(=O)NO)CCC3)cc2)c2ccccc2n1	30 nM		Activity (TK6 [5]): Toxic; Activity (TK6 [6]): Toxic
Cc1cc(COc2ccc(S(=O)(=O)NCC(=O)NO)cc2)c2ccccc2n1	82 nM	100 µM (≈ 40.1 µg/mL)	
Cc1cc(COc2ccc(S(=O)(=O)NCCC(=O)NO)cc2)c2ccccc2n1	2300 nM	4100 µM (≈ 1700 µg/mL)	
CC(=O)N1CC(CC(=O)NO)(NS(=O)(=O)c2ccc(OCc3cc(C)nc4ccccc34)cc2C)C1	> 10000 nM	900 µM (≈ 461 µg/mL)	
CCN(C1(C(=O)NO)CN(C(=O)C(C)C)C1)S(=O)(=O)c1ccc(OCc2cc(C)nc3ccccc23)cc1	37 nM	44000 µM (≈ 23800 µg/mL)	hepatocyte CLint at 1 µM [3]: 11 µL/min/1e6 cells
CC#CCOc1ccc(S(=O)(=O)NC2(CC(=O)NO)CN(C(C)=O)C2)cc1	1300 nM	1800 µM (≈ 712 µg/mL)	
CCCCC(=O)O[C@]1(C(=O)CO)[C@@H](C)C[C@H]2[C@@H]3CCC4=CC(=O)C=C[C@]4(C)[C@@]3(F)[C@@H](O)C[C@@]21C			Activity (Mus musculus): Active
COCCN(C1(C(=O)NO)CN(C(=O)C(C)C)C1)S(=O)(=O)c1ccc(OCc2cc(C)nc3ccccc23)cc1	31 nM	8900 µM (≈ 5080 µg/mL)	hepatocyte CLint at 1 µM [3]: 18 µL/min/1e6 cells
Cc1cc(COc2ccc(S(=O)(=O)N(C)C3(C(=O)NO)CN(CCC(F)(F)F)C3)cc2)c2ccccc2n1			remaining at 730.5 h, 0.1 mg/ml [9]: 98%
Cc1cc(COc2ccc(S(=O)(=O)NC3(C(=O)NO)CC3)cc2)c2ccccc2n1	210 nM	46000 µM (≈ 19700 µg/mL)	Activity (TK6 [5]): Toxic; Activity (TK6 [6]): Toxic
CC(=O)N1CC(CC(=O)NO)(NS(=O)(=O)c2ccc(Cc3cc(C)nc4ccccc34)cc2)C1	240 nM	1900 µM (≈ 917 µg/mL)	
Cc1cc(COc2ccc(S(=O)(=O)NC3(C(=O)NO)CCCCC3)cc2)c2ccccc2n1	100 nM	11000 µM (≈ 5170 µg/mL)	Activity (TK6 [5]): Non-Toxic; Activity (TK6 [6]): Non-Toxic
CC(=O)N1CC(CC(=O)NO)(NS(=O)(=O)c2ccc(OCc3cc(C)nc4c(F)cccc34)cc2)C1	61 nM		
Cc1cc(COc2ccc(S(=O)(=O)NC(C)(C)CC(=O)NO)cc2)c2ccccc2n1	43 nM	1600 µM (≈ 710 µg/mL)	
Cc1cc(COc2ccc(S(=O)(=O)NC3(C(=O)NO)CN(CCC(F)(F)F)C3)cc2)c2ccccc2n1			remaining at 730.5 h, 0.1 mg/ml [9]: 58%

Continued, in another order:

IC50 [1]	solubility at 24 h [2]	Compound	other results
84 nM	1600 µM (≈ 706 µg/mL)	Cc1cc(COc2ccc(S(=O)(=O)NC3(CC(=O)NO)CC3)cc2)c2ccccc2n1	
12 nM	4900 µM (≈ 2510 µg/mL)	CCCCN1CC(CC(=O)NO)(NS(=O)(=O)c2ccc(OCc3cc(C)nc4ccccc34)cc2)C1	remaining at 730.5 h, 0.1 mg/ml [9]: 72%; solubility at 24 h [8]: 70 µM (≈ 35.9 µg/mL)
10 nM	3400 µM (≈ 1880 µg/mL)	Cc1cc(COc2ccc(S(=O)(=O)NC3(CC(=O)NO)CN(CCC(F)(F)F)C3)cc2)c2ccccc2n1	remaining at 730.5 h, 0.1 mg/ml [9]: 88%
10 nM	200 µM (≈ 91.5 µg/mL)	Cc1cc(COc2ccc(S(=O)(=O)NC3(CC(=O)NO)COC3)cc2)c2ccccc2n1	
6 nM	1100 µM (≈ 597 µg/mL)	Cc1cc(COc2ccc(S(=O)(=O)NC3(CC(=O)NO)CN(C(=O)OC(C)C)C3)cc2)c2ccccc2n1	solubility at 24 h [8]: 80 µM (≈ 43.4 µg/mL)
16 nM	17000 µM (≈ 8710 µg/mL)	Cc1cc(COc2ccc(S(=O)(=O)NC3(C(=O)NO)CN(C(=O)C(C)C)C3)cc2)c2ccccc2n1	hepatocyte CLint at 1 µM [3]: < 5 µL/min/1e6 cells; Activity (TK6 [5]): Non-Toxic; Activity (TK6 [6]): Non-Toxic
4.6 nM	11000 µM (≈ 6270 µg/mL)	Cc1cc(COc2ccc(S(=O)(=O)NC3(CC(=O)NO)CN(C(=O)C(C)(C)N(C)C)C3)cc2)c2ccccc2n1	Stability (Hepatocyte): Unstable; Activity (TK6 [5]): Non-Toxic; Activity (TK6 [6]): Non-Toxic
13 nM		Cc1cc(COc2ccc(S(=O)(=O)NC3(CC(=O)NO)CCC3)cc2)c2ccccc2n1	
6 nM	900 µM (≈ 487 µg/mL)	Cc1cc(COc2ccc(S(=O)(=O)NC3(CC(=O)NO)CN(C(=O)CC(C)C)C3)cc2)c2ccccc2n1	hepatocyte CLint at 1 µM [3]: 13 µL/min/1e6 cells
61 nM	59000 µM (≈ 30200 µg/mL)	CC(=O)N1CCC(NS(=O)(=O)c2ccc(OCc3cc(C)nc4ccccc34)cc2)(C(=O)NO)CC1	Activity (TK6 [5]): Toxic; Activity (TK6 [6]): Toxic
4 nM	3000 µM (≈ 1620 µg/mL)	CC(=O)N1CC2(C1)CC(CC(=O)NO)(NS(=O)(=O)c1ccc(OCc3cc(C)nc4ccccc34)cc1)C2	
33 nM	5000 µM (≈ 2630 µg/mL)	Cc1cc(COc2ccc(S(=O)(=O)NC3(C(=O)NO)CN(C(=O)CC(C)C)C3)cc2)c2ccccc2n1	hepatocyte CLint at 1 µM [3]: 6 µL/min/1e6 cells
8 nM		Cc1cc(COc2ccc(S(=O)(=O)NC3(CC(=O)NO)CCN(C(=O)CC(C)C)C3)cc2)c2ccccc2n1 (stereo in doubt; 18g)	Activity (TK6 [5]): Toxic; Activity (TK6 [6]): Toxic; solubility [2]: 17000 µM (≈ 9430 µg/mL)
590 nM		CC(=O)N1CC(CC(=O)NO)(N(C)S(=O)(=O)c2ccc(OCc3cc(C)nc4ccccc34)cc2)C1	
8 nM	800 µM (≈ 399 µg/mL)	CC(=O)N1CC(CC(=O)NO)(NS(=O)(=O)c2ccc(OCc3cc(C)nc4ccccc34)cc2)C1	hepatocyte CLint at 1 µM [3]: < 5 µL/min/1e6 cells; remaining at 0.1 mg/ml [4]: 98%; Activity (TK6 [5]): Non-Toxic; Activity (TK6 [6]): Non-Toxic; selectivity ratio [10]: 1; half-life at 1 µM [7]: > 24 h; solubility at 24 h [8]: < 0.5 µM
42 nM		Cc1cc(COc2ccc(S(=O)(=O)NC3(CC(=O)NO)CCN(C(=O)CC(C)C)C3)cc2)c2ccccc2n1 (stereo in doubt; 18h)	solubility [2]: 7900 µM (≈ 4380 µg/mL)
5 nM	500 µM (≈ 284 µg/mL)	Cc1cc(COc2ccc(S(=O)(=O)NC3(CC(=O)NO)CN(C(=O)N4CCCCC4)C3)cc2)c2ccccc2n1	solubility at 24 h [8]: 80 µM (≈ 45.4 µg/mL)
27 nM	400 µM (≈ 205 µg/mL)	CCc1cc(COc2ccc(S(=O)(=O)NC3(CC(=O)NO)CN(C(C)=O)C3)cc2)c2ccccc2n1	
